In general, ΔTm refers to the shift of the melting midpoint relative to a reference.

Drawing on paper PMC8533391 (2021), this text covers ΔTm for two compounds.

The assay has as its system d(GTTAATCGCTGG) double-stranded DNA 12-oligomer (DNA, duplex) GTTAATCGCTGG/CCAGCGATTAAC
As to the kind of experiment: UV melting at 260 nm. The settings on record: Na+ (0.05 mM NaOH), 10 μM compound, 2.5 μM DNA, cacodylate, pH 7.2.

For the compound `C(=N\[C@H]1CC[C@H](/N=C/c2nccs2)CC1)/c1nccs1.C(=N\[C@H]1CC[C@H](/N=C/c2nccs2)CC1)/c1nccs1.[Ag+].[Ag+]`, where the note is “derived from two Tm (46.2 ± 0.8, free 48.3 ± 0.3)”, the ΔTm is -2.1 °C.

Turning to `C(=N\[C@H]1CC[C@H](/N=C/c2nccs2)CC1)/c1nccs1`, the ΔTm (derived from two Tm (47.4 ± 0.6, free 48.3 ± 0.3)) is -0.9 °C.
